Results: US10266548B2, “Substituted benzylindazoles for use as Bub1 kinase inhibitors in the treatment of hyperproliferative diseases” (Bayer Intellectual Property GmbH, priority 2011, dated 2019)
Values joined by “and” are separate entries in the source; they are usually repeats but may differ in a detail not shown here. Identical values can stand only once. Like-named read-outs stand apart in the source and are kept apart here.

Key:
[1] = target: catalytic domain of human Bub1 (amino acids 704-1085) (Homo sapiens (Human), UniProt O43683); assay: Bub1 kinase assay (TR-FRET); assay type: biochemical; details: 10 μM ATP, 1 μM peptide substrate; read-out: Biological Assay 1: Bub1 kinase assay median IC50
Procedure, shortened: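 Phosphoserine product detected by TR-FRET (Eu-labeled anti-mouse IgG/anti-phosphoserine antibody to streptavidin-XL665) after 1 h at 22 °C. IC50 from 4-parameter logistic fit.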

HeLa cells = assay: Proliferation assay (HeLa cell line); assay type: cell-based; details: read-out: Biological Assay 2: Proliferation assay (HeLa cell line) median IC50
Description: Cultivated tumor cells (cells were ordered from ATCC, except HeLa-MaTu and HeLa-MaTu-ADR, which were ordered from EPO-GmbH, Berlin) were plated at a density of 1000 to 5000 cells/well, depending on the growth rate of the respective cell line, in a 96-well multititer plate in 200 μL of their respective growth medium supplemented 10% fetal calf serum. After 24 hours, the cells of one plate (zero-point plate) were stained with crystal violet (see below), while the medium of the other plates was replaced by fresh culture medium (200 μl), to which the test substances were added in various concentrations (0 μM, as well as in the range of 0.001-10 μM; the final concentration of the solvent dimethyl sulfoxide was 0.5%). The cells were incubated for 4 days in the presence of test substances. Cell proliferation was determined by staining the cells with crystal violet: the cells were fixed by adding 20 μl/measuring point of an 11% glutaric aldehyde solution for 15 minutes at room temperature. After three washing cycles of the fixed cells with water, the plates were dried at room temperature. The cells were stained by adding 100 μl/measuring point of a 0.1% crystal violet solution (pH 3.0). After three washing cycles of the stained cells with water, the plates were dried at room temperature. The dye was dissolved by adding 100 μl/measuring point of a 10% acetic acid solution. […] The change of cell number, in percent, was calculated by normalization of the measured values to the aborbtion values of the zero-point plate (=0%) and the absorbtion of the untreated (0 μm) cells (=100%). The IC50 values were determined by means of a 4 parameter fit using the company's own software.

[2] = Homo sapiens, 96 h, 4 days, crystal violet

Sequence of catalytic domain of human Bub1 (amino acids 704-1085) (O43683 704-1085): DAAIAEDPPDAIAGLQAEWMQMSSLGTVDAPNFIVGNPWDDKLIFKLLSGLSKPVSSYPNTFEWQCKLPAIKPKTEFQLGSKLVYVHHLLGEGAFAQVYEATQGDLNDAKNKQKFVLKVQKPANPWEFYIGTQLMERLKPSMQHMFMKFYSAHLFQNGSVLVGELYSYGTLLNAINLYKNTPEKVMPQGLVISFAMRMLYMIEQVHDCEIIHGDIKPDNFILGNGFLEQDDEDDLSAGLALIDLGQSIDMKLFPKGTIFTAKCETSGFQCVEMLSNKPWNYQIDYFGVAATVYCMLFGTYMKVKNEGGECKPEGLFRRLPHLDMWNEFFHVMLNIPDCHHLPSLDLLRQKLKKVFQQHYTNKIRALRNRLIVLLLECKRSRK

Row | IC50 (HeLa cells; [2]) [µM] | IC50 (HeLa cells; 4 days, crystal violet) [µM] | Structure (SMILES) | IC50 [1] | IC50 (HeLa cells; Homo sapiens, 96 h) [µM]
1 | ≥ 10 | – | COc1cnc(-c2nn(Cc3ccc(F)cc3)c3ccccc23)nc1Nc1ccncc1 [Example 2-36-1, 2-[1-(4-fluorobenzyl)-1H-indazol-3-yl]-5-methoxy-N-(pyridin-4-yl)pyrimidin-4-amine] | 58 nM | –
2 | ≥ 10 | – | COc1cnc(-c2nn(Cc3ccc(S(=O)(=O)NC4CC4)cc3)c3ccccc23)nc1Nc1ccncc1 [Example 2-37-1, N-cyclopropyl-4-({3-[5-methoxy-4-(pyridin-4-ylamino)pyrimidin-2-yl]-1H-indazol-1-yl}methyl)benzenesulfonamide] | 71 nM | –
3 | ≥ 10 | – | COc1cnc(-c2nn(Cc3ccc4c(c3)OC(=O)C4)c3ccccc23)nc1Nc1ccncc1 [Example 2-38-1, 6-({3-[5-methoxy-4-(pyridin-4-ylamino)pyrimidin-2-yl]-1H-indazol-1-yl}methyl)-1-benzofuran-2(3H)-one] | 76 nM | –
4 | – | – | COc1cnc(-c2nn(Cc3c(F)cc(OC(F)F)cc3F)c3ccccc23)nc1Nc1ccncc1 [Example 2-39-1, 2-{1-[4-(difluoromethoxy)-2,6-difluorobenzyl]-1H-indazol-3-yl}-5-methoxy-N-(pyridin-4-yl)pyrimidin-4-amine] | 5.6 nM | 3.6
5 | 5.6 | – | COc1cnc(-c2nn(Cc3ccc(C(=O)OC(C)(C)C)cc3Cl)c3ccccc23)nc1Nc1ccncc1 [Example 2-40-1, tert-butyl 3-chloro-4-({3-[5-methoxy-4-(pyridin-4-ylamino)pyrimidin-2-yl]-1H-indazol-1-yl}methyl)benzoate] | 120 nM | –
6 | – | – | CCOC(=O)C(C)(C)c1cccc(Cn2nc(-c3ncc(OC)c(Nc4ccncc4)n3)c3ccccc32)c1 [Example 2-41-1, ethyl 2-[3-({3-[5-methoxy-4-(pyridin-4-ylamino)pyrimidin-2-yl]-1H-indazol-1-yl}methyl)phenyl]-2-methylpropanoate] | 150 nM | 7.9
7 | ≥ 10 | – | COc1cnc(-c2nn(Cc3ccc(C#N)cc3)c3ccccc23)nc1Nc1ccncc1 [Example 2-42-1, 4-({3-[5-methoxy-4-(pyridin-4-ylamino)pyrimidin-2-yl]-1H-indazol-1-yl}methyl)benzonitrile] | 190 nM | –
8 | ≥ 10 | – | COc1cnc(-c2nn(Cc3ccc(S(=O)(=O)N4CCOCC4)cc3)c3ccccc23)nc1Nc1ccncc1 [Example 2-43-1, 5-methoxy-2-{1-[4-(morpholin-4-ylsulfonyl)benzyl]-1H-indazol-3-yl}-N-(pyridin-4-yl)pyrimidin-4-amine] | 1200 nM | –
9 | – | – | COc1cnc(-c2nn(Cc3c(F)ccc(C)c3F)c3ccccc23)nc1Nc1ccncc1 [Example 2-48-1, 2-[1-(2,6-difluoro-3-methylbenzyl)-1H-indazol-3-yl]-5-methoxy-N-(pyridin-4-yl)pyrimidin-4-amine] | 5.5 nM | ≥ 10
10 | – | – | COc1cnc(-c2nn(Cc3c(F)cc(C(N)=O)cc3F)c3ccccc23)nc1Nc1ccncc1 [Example 2-50-1, 3,5-difluoro-4-({3-[5-methoxy-4-(pyridin-4-ylamino)pyrimidin-2-yl]-1H-indazol-1-yl}methyl)benzamide] | 11 nM | ≥ 10
11 | – | – | COc1cnc(-c2nn(Cc3c(F)cc(OCCOC(C)=O)cc3F)c3ccccc23)nc1Nc1ccncc1 [Example 2-51-1, 2-[3,5-difluoro-4-({3-[5-methoxy-4-(pyridin-4-ylamino)pyrimidin-2-yl]-1H-indazol-1-yl}methyl)phenoxy]ethyl acetate] | 10 nM | 2.7
12 | – | – | CCCOc1cc(F)c(Cn2nc(-c3ncc(OC)c(Nc4ccncc4)n3)c3ccccc32)c(F)c1 [Example 2-52-1, 2-[1-(2,6-difluoro-4-propoxybenzyl)-1H-indazol-3-yl]-5-methoxy-N-(pyridin-4-yl)pyrimidin-4-amine] | 11 nM | 2.1
13 | – | 3.4 | CCOc1cc(F)c(Cn2nc(-c3ncc(OC)c(Nc4ccncc4)n3)c3ccccc32)c(OC)c1 [Example 2-53-1] | 83 nM | –
14 | – | – | CCOc1cc(F)c(Cn2nc(-c3ncc(O)c(Nc4ccncc4)n3)c3ccccc32)c(F)c1 [Example 3-1, 2-[1-(4-ethoxy-2,6-difluorobenzyl)-1H-indazol-3-yl]-4-(pyridin-4-ylamino)pyrimidin-5-ol] | 4.7 nM | ≥ 10
15 | – | – | COc1ccc(Cn2nc(-c3ncc(O)c(Nc4ccncc4)n3)c3ccccc32)cc1 [Example 3-2, 2-[1-(4-methoxybenzyl)-1H-indazol-3-yl]-4-(pyridin-4-ylamino) pyrimidin-5-ol] | 9.8 nM | ≥ 10
16 | – | – | Oc1cnc(-c2nn(Cc3ccccc3F)c3ccccc23)nc1Nc1ccncc1 [Example 3-3, 2-[1-(2-fluorobenzyl)-1H-indazol-3-yl]-4-(pyridin-4-ylamino)pyrimidin-5-ol] | 15 nM | ≥ 10
17 | ≥ 10 | – | Oc1cnc(-c2nn(Cc3ccc(F)cc3)c3ccccc23)nc1Nc1ccncc1 [Example 3-4, 2-[1-(4-fluorobenzyl)-1H-indazol-3-yl]-4-(pyridin-4-ylamino) pyrimidin-5-ol] | 48 nM | –
18 | – | – | CCOc1cc(F)c(Cn2nc(-c3ncc(OCC4(CO)COC4)c(Nc4ccncc4)n3)c3ccccc32)c(F)c1 [Example 4-1, {3-[({2-[1-(4-ethoxy-2,6-difluorobenzyl)-1H-indazol-3-yl]-4-(pyridin-4-ylamino)pyrimidin-5-yl}oxy)methyl]oxetan-3-yl}methanol] | 2.4 nM | 3.5
19 | – | – | NS(=O)(=O)COc1cnc(-c2nn(Cc3ccccc3F)c3ccccc23)nc1Nc1ccncc1 [Example 4-3, 1-({2-[1-(2-fluorobenzyl)-1H-indazol-3-yl]-4-(pyridin-4-ylamino)pyrimidin-5-yl}oxy)methane-sulfonamide] | 7.5 nM | 14
20 | ≥ 10 | – | Fc1ccccc1Cn1nc(-c2ncc(OCCc3nnn[nH]3)c(Nc3ccncc3)n2)c2ccccc21 [Example 4-5-1, 2-[1-(2-fluorobenzyl)-1H-indazol-3-yl]-N-(pyridin-4-yl)-5-[2-(1H-tetrazol-5-yl)ethoxy] pyrimidin-4-amine] | 18 nM | –
21 | – | – | CN(C)CCOc1cnc(-c2nn(Cc3ccc(F)cc3)c3ccccc23)nc1Nc1ccncc1 [Example 4-6, 5-[2-(dimethyl-amino)ethoxy]-2-[1-(4-ftuorobenzyl)-1H-indazol-3-yl]-N-(pyridin-4-yl)pyrimidin-4-amine] | 29 nM | 3.6
22 | ≥ 10 | – | Fc1ccccc1Cn1nc(-c2ncc(OCc3nnn[nH]3)c(Nc3ccncc3)n2)c2ccccc21 [Example 4-7, 2-[1-(2-fluorobenzyl)-1H-indazol-3-yl]-N-(pyridin-4-yl)-5-(1H-tetrazol-5-ylmethoxy) pyrimidin-4-amine] | 35 nM | –
23 | – | – | CCOc1cc(F)c(Cn2nc(-c3ncc(OCCOC)c(Nc4ccncc4)n3)c3ccccc32)c(F)c1 [Example 4-10, 2-[1-(4-ethoxy-2,6-difluorobenzyl)-1H-indazol-3-yl]-5-(2-methoxyethoxy)-N-(pyridin-4-yl)pyrimidin-4-amine] | 9 nM | 4.4
24 | – | – | COCc1noc(COc2cnc(-c3nn(Cc4ccccc4F)c4ccccc34)nc2Nc2ccncc2)n1 [Example 4-13, 2-[1-(2-fluorobenzyl)-1H-indazol-3-yl]-5-{[3-(methoxymethyl)-1,2,4-oxadiazol-5-yl]methoxy}-N-(pyridin-4-yl)pyrimidin-4-amine] | 76 nM and 7.6 nM | 8
25 | ≥ 10 | – | CCOC(=O)COc1cnc(-c2nn(Cc3c(F)cc(OCC)cc3F)c3ccccc23)nc1Nc1ccncc1 [Example 4-14, ethyl ({2-[1-(4-ethoxy-2,6-difluorobenzyl)-1H-indazol-3-yl]-4-(pyridin-4-ylamino)pyrimidin-5-yl}oxy)acetate] | 12 nM | –
26 | – | – | CCOc1cc(F)c(Cn2nc(-c3ncc(OCC(=O)N4CC(F)C4)c(Nc4ccncc4)n3)c3ccccc32)c(F)c1 [Example 4-21, 2-({2-[1-(4-ethoxy-2,6-difluorobenzyl)-1H-indazol-3-yl]-4-(pyridin-4-ylamino)pyrimidin-5-yl}oxy)-1-(3-fiuoroazetidin-1-yl)ethanone] | 7.8 nM | 3.8
27 | 4.9 | – | CCOc1cc(F)c(Cn2nc(-c3ncc(OCCNC(=O)OC(C)(C)C)c(Nc4ccncc4)n3)c3ccccc32)c(F)c1 [Example 4-23, tert-butyl [2-({2-[1-(4-ethoxy-2,6-difluorobenzyl)-1H-indazol-3-yl]-4-(pyridin-4-ylamino)pyrimidin-5-yl}oxy)ethyl]carbamate] | 9.3 nM | –
28 | – | – | CCOc1cc(F)c(Cn2nc(-c3nccc(Nc4ccncc4)n3)c3ccccc32)c(F)c1 [Example 5-1, 2-[1-(4-ethoxy-2,6-difluorobenzyl)-1H-indazol-3-yl]-N-(pyridin-4-yl)pyrimidin-4-amine] | 5.2 nM | 1.4
